# Laboratory results: ChEMBL document CHEMBL1275577, “Study of the in vitro activities of rifaximin and comparator agents against 536 anaerobic intestinal bacteria from the perspective of potential utility in pathology involving bowel flora” (Antimicrob Agents Chemother, 2009)
# What was measured:
# Assay type in all cases: functional
# Thomasclavelia ramosa = test: Antimicrobial activity against Clostridium ramosum by Wadsworth agar dilution method
# Blautia luti = test: Antimicrobial activity against Ruminococcus luti by Wadsworth agar dilution method
# Bacteroides ovatus = test: Antimicrobial activity against Bacteroides ovatus by Wadsworth agar dilution method
# Clostridium fallax = test: Antimicrobial activity against Clostridium fallax by Wadsworth agar dilution method
# [1] = system: Porphyromonas asaccharolytica; test: Antimicrobial activity against Porphyromonas asaccharolyticus by Wadsworth agar dilution method
# Clostridium sp. = test: Antimicrobial activity against Clostridium sp. by Wadsworth agar dilution method
# [2] = system: Pseudoramibacter alactolyticus; test: Antimicrobial activity against Eubacterium alactolyticum by Wadsworth agar dilution method
# Eubacterium rectale = test: Antimicrobial activity against Eubacterium rectale by Wadsworth agar dilution method; conditions: Agathobacter rectalis
# [Clostridium] innocuum = Antimicrobial activity against Clostridium innocuum by Wadsworth agar dilution method
# [3] = system: Lactiplantibacillus plantarum; test: Antimicrobial activity against Lactobacillus plantarum by Wadsworth agar dilution method
# [4] = system: Limosilactobacillus reuteri; test: Antimicrobial activity against Lactobacillus reuteri by Wadsworth agar dilution method
# [5] = Antimicrobial activity against Bifidobacterium pseudocatenulatum by Wadsworth agar dilution method
# Blautia producta = test: Antimicrobial activity against Ruminococcus productus by Wadsworth agar dilution method
# [6] = system: Parabacteroides goldsteinii; test: Antimicrobial activity against Parabacteroides goldsteinii by Wadsworth agar dilution method
# [7] = system: Lactobacillus catenaformis; test: Antimicrobial activity against Lactobacillus catenaformis by Wadsworth agar dilution method; conditions: Eggerthia catenaformis
# Atopobium minutum = test: Antimicrobial activity against Atopobium minutum by Wadsworth agar dilution method
# Fusobacterium varium = test: Antimicrobial activity against Fusobacterium varium by Wadsworth agar dilution method
# Ruminococcus gnavus = test: Antimicrobial activity against Ruminococcus gnavus by Wadsworth agar dilution method; conditions: Mediterraneibacter gnavus
# Fusobacterium mortiferum = test: Antimicrobial activity against Clostridium rectum by Wadsworth agar dilution method
# Hoylesella loescheii = test: Antimicrobial activity against Prevotella loescheii by Wadsworth agar dilution method
# Clostridium disporicum = test: Antimicrobial activity against Clostridium disporicum by Wadsworth agar dilution method
# [8] = system: Prevotella melaninogenica; test: Antimicrobial activity against Prevotella melaninogenica by Wadsworth agar dilution method
# Clostridium scindens = test: Antimicrobial activity against Clostridium scindens by Wadsworth agar dilution method
# Eubacterium limosum = test: Antimicrobial activity against Eubacterium limosum by Wadsworth agar dilution method
# [9] = system: Peptostreptococcus anaerobius; test: Antimicrobial activity against Peptostreptococcus anaerobius by Wadsworth agar dilution method
# Bifidobacterium longum = test: Antimicrobial activity against Bifidobacterium longum by Wadsworth agar dilution method
# Clostridium beijerinckii = test: Antimicrobial activity against Clostridium beijerinckii by Wadsworth agar dilution method
# Ruminococcus lactaris = test: Antimicrobial activity against Ruminococcus lactaris by Wadsworth agar dilution method
# [10] = system: Ruminococcus flavefaciens; test: Antimicrobial activity against Ruminococcus flavefaciens by Wadsworth agar dilution method
# Clostridium perfringens = test: Antimicrobial activity against Clostridium perfringens by Wadsworth agar dilution method
# Clostridium subterminale = test: Antimicrobial activity against Clostridium subterminale by Wadsworth agar dilution method
# Parvimonas micra = test: Antimicrobial activity against Peptostreptococcus micros by Wadsworth agar dilution method
# Schaalia meyeri = test: Antimicrobial activity against Actinomyces meyeri by Wadsworth agar dilution method
# Prevotella corporis = test: Antimicrobial activity against Prevotella corporis by Wadsworth agar dilution method
# Clostridium sporogenes = test: Antimicrobial activity against Clostridium sporogenes by Wadsworth agar dilution method
# Bacteroides uniformis = test: Antimicrobial activity against Bacteroides uniformis by Wadsworth agar dilution method
# Peptoniphilus harei = test: Antimicrobial activity against Peptoniphilus harei by Wadsworth agar dilution method
# [11] = system: Limosilactobacillus fermentum; test: Antimicrobial activity against Lactobacillus fermentum by Wadsworth agar dilution method
# Actinomyces viscosus = test: Antimicrobial activity against Actinomyces viscosus by Wadsworth agar dilution method
# [12] = system: Desulfovibrio desulfuricans; test: Antimicrobial activity against Desulfovibrio desulfuricans by Wadsworth agar dilution method
# [13] = system: Lacticaseibacillus rhamnosus; test: Antimicrobial activity against Lactobacillus rhamnosus by Wadsworth agar dilution method
# Bacteroides stercoris = test: Antimicrobial activity against Bacteroides stercoris by Wadsworth agar dilution method
# Bilophila wadsworthia = test: Antimicrobial activity against Bilophila wadsworthia by Wadsworth agar dilution method in presence of 1% pyruvic acid
# Eubacterium cylindroides = test: Antimicrobial activity against Eubacterium cylindroides by Wadsworth agar dilution method; conditions: Faecalitalea cylindroides
# Bacteroides fragilis = test: Antimicrobial activity against Bacteroides fragilis by Wadsworth agar dilution method
# [14] = system: Clostridium paraputrificum; test: Antimicrobial activity against Clostridium paraputrificum by Wadsworth agar dilution method
# Collinsella aerofaciens = test: Antimicrobial activity against Colinsella aerofaciens by Wadsworth agar dilution method
structure (smiles),measurement,setting,value
NC[C@@H]1O[C@H](O[C@H]2[C@@H](O)[C@H](O[C@@H]3[C@@H](O)[C@H](N)C[C@H](N)[C@H]3O[C@H]3O[C@H](CN)[C@@H](O)[C@H](O)[C@H]3N)O[C@@H]2CO)[C@H](N)[C@@H](O)[C@@H]1O [FRAMYCETIN],MIC50,Thomasclavelia ramosa,256 µg/mL
same,MIC90,Thomasclavelia ramosa,1020 µg/mL
same,MIC50,Blautia luti,128 µg/mL
same,MIC90,Blautia luti,512 µg/mL
same,MIC50,Bacteroides ovatus,> 1020 µg/mL
same,MIC90,Bacteroides ovatus,> 1020 µg/mL
same,MIC50,Clostridium fallax,256 µg/mL
same,MIC90,Clostridium fallax,1020 µg/mL
same,MIC50,[1],512 µg/mL
same,MIC90,[1],> 1020 µg/mL
same,MIC50,Clostridium sp.,256 µg/mL
same,MIC90,Clostridium sp.,1020 µg/mL
same,MIC50,[2],128 µg/mL
same,MIC90,[2],1020 µg/mL
same,MIC50,Eubacterium rectale,128 µg/mL
same,MIC90,Eubacterium rectale,1020 µg/mL
same,MIC50,[Clostridium] innocuum,> 1020 µg/mL
same,MIC90,[Clostridium] innocuum,> 1020 µg/mL
same,MIC50,[3],128 µg/mL
same,MIC90,[3],1020 µg/mL
same,MIC50,[4],128 µg/mL
same,MIC90,[4],1020 µg/mL
same,MIC50,[5],128 µg/mL
same,MIC90,[5],1020 µg/mL
same,MIC50,Blautia producta,128 µg/mL
same,MIC90,Blautia producta,512 µg/mL
same,MIC50,[6],1020 µg/mL
same,MIC90,[6],> 1020 µg/mL
same,MIC50,[7],128 µg/mL
same,MIC90,[7],1020 µg/mL
same,MIC50,Atopobium minutum,128 µg/mL
same,MIC90,Atopobium minutum,1020 µg/mL
same,MIC50,Fusobacterium varium,512 µg/mL
same,MIC90,Fusobacterium varium,> 1020 µg/mL
same,MIC50,Ruminococcus gnavus,128 µg/mL
same,MIC90,Ruminococcus gnavus,512 µg/mL
same,MIC50,Fusobacterium mortiferum,256 µg/mL
same,MIC90,Fusobacterium mortiferum,1020 µg/mL
same,MIC50,Hoylesella loescheii,512 µg/mL
same,MIC90,Hoylesella loescheii,1020 µg/mL
same,MIC50,Clostridium disporicum,256 µg/mL
same,MIC90,Clostridium disporicum,1020 µg/mL
same,MIC50,[8],512 µg/mL
same,MIC90,[8],1020 µg/mL
same,MIC50,Clostridium scindens,256 µg/mL
same,MIC90,Clostridium scindens,1020 µg/mL
same,MIC50,Eubacterium limosum,128 µg/mL
same,MIC90,Eubacterium limosum,1020 µg/mL
same,MIC50,[9],128 µg/mL
same,MIC90,[9],512 µg/mL
same,MIC50,Bifidobacterium longum,128 µg/mL
same,MIC90,Bifidobacterium longum,1020 µg/mL
same,MIC50,Clostridium beijerinckii,256 µg/mL
same,MIC90,Clostridium beijerinckii,1020 µg/mL
same,MIC50,Ruminococcus lactaris,128 µg/mL
same,MIC90,Ruminococcus lactaris,512 µg/mL
same,MIC50,[10],128 µg/mL
same,MIC90,[10],512 µg/mL
same,MIC50,Clostridium perfringens,1020 µg/mL
same,MIC90,Clostridium perfringens,> 1020 µg/mL
same,MIC50,Clostridium subterminale,256 µg/mL
same,MIC90,Clostridium subterminale,1020 µg/mL
same,MIC50,Parvimonas micra,128 µg/mL
same,MIC90,Parvimonas micra,512 µg/mL
same,MIC50,Schaalia meyeri,128 µg/mL
same,MIC90,Schaalia meyeri,1020 µg/mL
same,MIC50,Prevotella corporis,512 µg/mL
same,MIC90,Prevotella corporis,1020 µg/mL
same,MIC50,Clostridium sporogenes,256 µg/mL
same,MIC90,Clostridium sporogenes,1020 µg/mL
same,MIC50,Bacteroides uniformis,> 1020 µg/mL
same,MIC90,Bacteroides uniformis,> 1020 µg/mL
same,MIC50,Peptoniphilus harei,128 µg/mL
same,MIC90,Peptoniphilus harei,512 µg/mL
same,MIC50,[11],128 µg/mL
same,MIC90,[11],1020 µg/mL
same,MIC50,Actinomyces viscosus,128 µg/mL
same,MIC90,Actinomyces viscosus,1020 µg/mL
same,MIC,[12],> 1020 µg/mL
same,MIC50,[12],> 1020 µg/mL
same,MIC90,[12],> 1020 µg/mL
same,MIC50,[13],128 µg/mL
same,MIC90,[13],1020 µg/mL
same,MIC50,Bacteroides stercoris,> 1020 µg/mL
same,MIC90,Bacteroides stercoris,> 1020 µg/mL
same,MIC50,Bilophila wadsworthia,> 1020 µg/mL
same,MIC90,Bilophila wadsworthia,> 1020 µg/mL
same,MIC50,Eubacterium cylindroides,128 µg/mL
same,MIC90,Eubacterium cylindroides,1020 µg/mL
same,MIC50,Bacteroides fragilis,> 1020 µg/mL
same,MIC90,Bacteroides fragilis,> 1020 µg/mL
same,MIC50,[14],256 µg/mL
same,MIC90,[14],1020 µg/mL
same,MIC50,Collinsella aerofaciens,128 µg/mL
same,MIC90,Collinsella aerofaciens,1020 µg/mL
CC(=O)Oc1ccccc1C(=O)Nc1ncc([N+](=O)[O-])s1 [NITAZOXANIDE],MIC50,Thomasclavelia ramosa,0.5 µg/mL
same,MIC90,Thomasclavelia ramosa,4 µg/mL
same,MIC50,Blautia luti,0.5 µg/mL
same,MIC90,Blautia luti,1 µg/mL
same,MIC50,Bacteroides ovatus,2 µg/mL
same,MIC90,Bacteroides ovatus,4 µg/mL
same,MIC50,Clostridium fallax,0.5 µg/mL
same,MIC90,Clostridium fallax,4 µg/mL
same,MIC50,[1],0.5 µg/mL
same,MIC90,[1],1 µg/mL
same,MIC50,Clostridium sp.,0.5 µg/mL
same,MIC90,Clostridium sp.,4 µg/mL
same,MIC50,[2],2 µg/mL
same,MIC90,[2],32 µg/mL
same,MIC50,Eubacterium rectale,2 µg/mL
same,MIC90,Eubacterium rectale,32 µg/mL
same,MIC50,[Clostridium] innocuum,1 µg/mL
same,MIC90,[Clostridium] innocuum,4 µg/mL
same,MIC50,[3],2 µg/mL
same,MIC90,[3],32 µg/mL
same,MIC50,[4],2 µg/mL
same,MIC90,[4],32 µg/mL
same,MIC50,[5],2 µg/mL
same,MIC90,[5],32 µg/mL
same,MIC50,Blautia producta,0.5 µg/mL
same,MIC90,Blautia producta,1 µg/mL
same,MIC50,[6],4 µg/mL
same,MIC90,[6],4 µg/mL
same,MIC50,[7],2 µg/mL
same,MIC90,[7],32 µg/mL
same,MIC50,Atopobium minutum,2 µg/mL
same,MIC90,Atopobium minutum,32 µg/mL
same,MIC50,Fusobacterium varium,1 µg/mL
same,MIC90,Fusobacterium varium,8 µg/mL
same,MIC50,Ruminococcus gnavus,0.5 µg/mL
same,MIC90,Ruminococcus gnavus,1 µg/mL
same,MIC50,Fusobacterium mortiferum,0.5 µg/mL
same,MIC90,Fusobacterium mortiferum,4 µg/mL
same,MIC50,Hoylesella loescheii,4 µg/mL
same,MIC90,Hoylesella loescheii,8 µg/mL
same,MIC50,Clostridium disporicum,0.5 µg/mL
same,MIC90,Clostridium disporicum,4 µg/mL
same,MIC50,[8],4 µg/mL
same,MIC90,[8],8 µg/mL
same,MIC50,Clostridium scindens,0.5 µg/mL
same,MIC90,Clostridium scindens,4 µg/mL
same,MIC50,Eubacterium limosum,2 µg/mL
same,MIC90,Eubacterium limosum,32 µg/mL
same,MIC50,[9],0.5 µg/mL
same,MIC90,[9],1 µg/mL
same,MIC50,Bifidobacterium longum,2 µg/mL
same,MIC90,Bifidobacterium longum,32 µg/mL
same,MIC50,Clostridium beijerinckii,0.5 µg/mL
same,MIC90,Clostridium beijerinckii,4 µg/mL
same,MIC50,Ruminococcus lactaris,0.5 µg/mL
same,MIC90,Ruminococcus lactaris,1 µg/mL
same,MIC50,[10],0.5 µg/mL
same,MIC90,[10],1 µg/mL
same,MIC50,Clostridium perfringens,2 µg/mL
same,MIC90,Clostridium perfringens,4 µg/mL
same,MIC50,Clostridium subterminale,0.5 µg/mL
same,MIC90,Clostridium subterminale,4 µg/mL
same,MIC50,Parvimonas micra,0.5 µg/mL
same,MIC90,Parvimonas micra,1 µg/mL
same,MIC50,Schaalia meyeri,2 µg/mL
same,MIC90,Schaalia meyeri,32 µg/mL
same,MIC50,Prevotella corporis,4 µg/mL
same,MIC90,Prevotella corporis,8 µg/mL
same,MIC50,Clostridium sporogenes,0.5 µg/mL
same,MIC90,Clostridium sporogenes,4 µg/mL
same,MIC50,Bacteroides uniformis,4 µg/mL
same,MIC90,Bacteroides uniformis,4 µg/mL
same,MIC50,Peptoniphilus harei,0.5 µg/mL
same,MIC90,Peptoniphilus harei,1 µg/mL
same,MIC50,[11],2 µg/mL
same,MIC90,[11],32 µg/mL
same,MIC50,Actinomyces viscosus,2 µg/mL
same,MIC90,Actinomyces viscosus,32 µg/mL
same,MIC50,[12],4 µg/mL
same,MIC90,[12],4 µg/mL
same,MIC50,[13],2 µg/mL
same,MIC90,[13],32 µg/mL
same,MIC50,Bacteroides stercoris,4 µg/mL
same,MIC90,Bacteroides stercoris,4 µg/mL
same,MIC50,Bilophila wadsworthia,4 µg/mL
same,MIC90,Bilophila wadsworthia,4 µg/mL
same,MIC50,Eubacterium cylindroides,2 µg/mL
same,MIC90,Eubacterium cylindroides,32 µg/mL
same,MIC50,Bacteroides fragilis,4 µg/mL
same,MIC90,Bacteroides fragilis,4 µg/mL
same,MIC50,[14],0.5 µg/mL
same,MIC90,[14],4 µg/mL
same,MIC50,Collinsella aerofaciens,2 µg/mL
same,MIC90,Collinsella aerofaciens,32 µg/mL
